Results on 16 compounds are retold here after patent US12404289B2 (Gilead Sciences, Inc., priority 2020, dated 2025).

The structures appear in SMILES notation. Read-outs that look alike come from different tables or passages of the source. A value given as a limit tells only on which side of the number the result lay.

Type in all cases: cell-based
Series [1] can be described thus: CC50 assay (cytopathology in HEp-2 cells). The settings on record: human, HEp-2 cells, 4 days, CellTiter-Glo, read-out: RSV CC50. The procedure:
The cytopathology of compounds in HEp-2 cells is determined in the following manner. HEp-2 cells are suspended in DMEM+GlutaMAX (supplemented with 10% FBS and 1% Penicillin/Streptomycin) and seeded into 96 well plates (3×10^3/well). After a 4-hour incubation at 37° C.+5% CO2, three-fold serial dilutions of compounds are added to each well using an HP D300e digital dispenser. The cells are then incubated for 4 days at 37° C. and 5% CO2. The final volume in each well is 200 μL. Untreated wells are included as controls for 100% cell viability, while compounds treated with 5 uM puromycin are included as controls for 0% viability. Following the incubation, 100 μL of culture supernatant is removed from each well and replaced with 100 μL of CellTiter-Glo reagent (Promega, Madison, WI, Cat #G7573). The plates are then rocked for 2 minutes followed by a 10-minute incubation at 25° C. Compound-induced cytopathic effect is then assessed by measuring luminescence signal using and Envision plate reader. Values are normalized to the untreated DMSO and puromycin-treated controls (as 100% and 0% viability, respectively) and data is fit using non-linear regression analysis using XLfit4. The CC50 value for each compound is then determined as the concentration reducing cell viability by 50%.

The test system of series [2] is Respiratory syncytial virus (RSV) strain A2. Nature of the series: RSV antiviral assay (HEp-2, 96 well).
The next series deals with SARS-CoV-2. In words: SARS-CoV-2 antiviral assay (A549-hACE2, Nano luciferase). Particulars: A549-hACE2 cells, SARS-CoV2-Nano, MOI 0.025, 48 h, Table 4, read-out: EC50 SARS CoV2.
Series [3] has as its system Respiratory syncytial virus recombinant with luciferase (RSV-Luc5). Nature of the series: microbe, parasite or virus in culture.
Series [4] has as its system Recombinant respiratory syncytial virus expressing the firefly luciferase protein (RSV-Fluc). Nature of the series: microbe, parasite or virus in culture. The settings on record: Table 4.
In series [5] the test system is Respiratory syncytial virus (RSV) strain A2. In words: Hep-2 RSV2 384-well assay (EC50-HEP2-384). The settings on record: HEp-2 cells, RSV A2, MOI=4, 4 days.
Where [6] appears, read: human respiratory syncytial virus, HEp-2, 96 h, read-out: EC50-RSV-HEP-2-96, HEp-2 cells, RSV A2, MOI=4, 4 days, 96 well, CellTiter-Glo, Table 1.
[7] abbreviates: Severe acute respiratory syndrome coronavirus 2, 48 h.
[8] abbreviates: human respiratory syncytial virus, HEp-2, 72 h, read-out: EC50 RSVFluc-Hep2 384, HEp-2 cells, RSV-Luc5, MOI=0.5, 3 days, 384 well, Table 3.
[9] abbreviates: human respiratory syncytial virus, NHBE, 72 h, read-out: EC50 RSVFluc NHBE 96, NHBE cells, RSV-Fluc, MOI of 0.1, three days, 96 well.
Setting [10] is: human respiratory syncytial virus, HEp-2, 96 h, Table 3.
Setting [11] is: read-out: EC50 RSVFluc-Hep2 384, HEp-2 cells, RSV-Luc5, MOI=0.5, 3 days, 384 well, Table 3.
[12] abbreviates: read-out: EC50 RSVFluc NHBE 96, NHBE cells, RSV-Fluc, MOI of 0.1, three days, 96 well.
The mark [13] stands for this setting: read-out: EC50 RSV HEP2 96, HEp-2 cells, RSV A2, MOI=4, 4 days, 96 well, Table 3.

Turning to `COC(C)(C)COC(=O)[C@H](C)NP(=O)(OC[C@H]1O[C@@](C#N)(c2ccc3c(N)ncnn23)[C@H](O)[C@@H]1O)Oc1ccccc1` (stereo partly drawn) [Example 24, 2-Methoxy-2-methylpropyl ((((2R,3S,4R,5R)-5-(4-aminopyrrolo[2,1-f][1,2,4]triazin-7-yl)-5-cyano-3,4-dihydroxytetrahydrofuran-2-yl)methoxy)(phenoxy)phosphoryl)-L-alaninate], in series [1] (Table 1), the 50% cytotoxic concentration (CC50) at 4 days was greater than 50000 nM. The EC50 in series [2] (setting [6]) came to 1470 nM.
`CCC(CC)COC(=O)[C@H](C)NP(=O)(OC[C@H]1O[C@@](C#N)(c2ccc3c(N)ncnn23)[C@H](OC(=O)C(C)C)[C@@H]1OC(=O)C(C)C)Oc1cc(C)ccc1C(C)C` (stereo partly drawn) [Example 27, (2R,3R,4R,5R)-2-(4-Aminopyrrolo[2,1-f][1,2,4]triazin-7-yl)-2-cyano-5-((((((S)-1-(2-ethylbutoxy)-1-oxopropan-2-yl)amino)(2-isopropyl-5-methylphenoxy)phosphoryl)oxy)methyl)tetrahydrofuran-3,4-diyl bis(2-methylpropanoate)]: in series [1] (Table 1), the CC50 at 4 days worked out at 5860 nM. Further, the EC50 in series [2] (setting [6]) was 958 nM.
Regarding `CC(C)OC(=O)[C@H](C)N[P@](=O)(OC[C@H]1O[C@@](C#N)(c2ccc3c(N)ncnn23)[C@H](O)[C@@H]1O)Oc1ccccc1`, the half-maximal cytotoxic concentration (CC50) at 4 days in series [1] (Table 2) was greater than 9600 nM. Further, in series [2] (human respiratory syncytial virus, HEp-2, 96 h, read-out: EC50-RSV-HEP-2-96, HEp-2 cells, RSV A2, MOI=4, 4 days, 96 well, Table 2), the concentration for a half-maximal effect (EC50) was found to be 364 nM.
As for `CCC(=O)O[C@H]1[C@@H](OC(=O)CC)[C@](C#N)(c2ccc3c(N)ncnn23)O[C@@H]1CO[P@@](=O)(N[C@@H](C)C(=O)OC)Oc1ccccc1` [Example 5, (2R,3R,4R,5R)-2-(4-aminopyrrolo[2,1-f][1,2,4]triazin-7-yl)-2-cyano-5-((((S)—(((S)-1-methoxy-1-oxopropan-2-yl)amino)(phenoxy)phosphoryl)oxy)methyl) tetrahydrofuran-3,4-diyl Dipropionate], the CC50 at 4 days in series [1] (Table 1) is 9540 nM. Also, the EC50 in series [2] (setting [6]) was 109 nM.
For `CC(=O)O[C@H]1[C@@H](OC(C)=O)[C@](C#N)(c2ccc3c(N)ncnn23)O[C@@H]1COP(=O)(N[C@@H](C)C(=O)OCC(C)C)Oc1ccc(C(C)(C)C)cc1` (stereo partly drawn) [Example 137, (2R,3R,4R,5R)-2-(4-aminopyrrolo[2,1-f][1,2,4]triazin-7-yl)-5-((((4-(tert-butyl)phenoxy)(((S)-1-isobutoxy-1-oxopropan-2-yl)amino)phosphoryl)oxy)methyl)-2-cyanotetrahydrofuran-3,4-diyl Diacetate], the EC50 in the series with SARS-CoV-2 (setting [7]) was 67.4 nM; in series [3] (setting [8]), 22.1 nM; in series [4] (setting [9]) it was 4.82 nM; in series [5] (setting [10]), 31.5 nM.
On the same counts, the results for `CC(C)C(=O)O[C@H]1[C@@H](OC(=O)C(C)C)[C@](C#N)(c2ccc3c(N)ncnn23)O[C@@H]1COP(=O)(N[C@@H](C)C(=O)OC1CC2(CCC2)C1)Oc1ccccc1` (stereo partly drawn) [Example 46, (2R,3R,4R,5R)-2-(4-aminopyrrolo[2,1-f][1,2,4]triazin-7-yl)-2-cyano-5-((((((S)-1-oxo-1-(spiro[3.3]heptan-2-yloxy)propan-2-yl)amino)(phenoxy)phosphoryl)oxy)methyl)tetrahydrofuran-3,4-diyl bis(2-methylpropanoate)] are 237 nM, 19.3 nM, 7.79 nM and 52.3 nM.
For the compound `CC(=O)O[C@H]1[C@@H](OC(C)=O)[C@](C#N)(c2ccc3c(N)ncnn23)O[C@@H]1COP(=O)(N[C@@H](C)C(=O)OC1CC(C)(C)C1)Oc1ccc(C(C)(C)C)cc1` (single isomer, unassigned) [Example 96b], the EC50 in the series on SARS-CoV-2 turned out to be 276 nM; in series [3] (setting [11]), 22.5 nM; in series [4] (setting [12]) it was 25.1 nM; in series [5] (Table 3), 27.9 nM.
`CC(=O)O[C@H]1[C@@H](OC(C)=O)[C@](C#N)(c2ccc3c(N)ncnn23)O[C@@H]1COP(=O)(N[C@@H](C)C(=O)OC1CC(C)(C)C1)Oc1ccc(C(C)(C)C)cc1` (single isomer, unassigned) [Example 96a]: the EC50 in the series on SARS-CoV-2 (setting [7]) is 198 nM; in series [3] (setting [8]), 21.2 nM; in series [4] (setting [12]), 8.53 nM; in series [5] (setting [10]) it was 26.5 nM.
On to `CC(=O)O[C@H]1[C@@H](OC(C)=O)[C@](C#N)(c2ccc3c(N)ncnn23)O[C@@H]1COP(=O)(N[C@@H](C)C(=O)OC1CC(C)(C)C1)Oc1ccc(C(C)(C)C)cc1` (stereo partly drawn) [Example 96, (2R,3R,4R,5R)-2-(4-aminopyrrolo[2,1-f][1,2,4]triazin-7-yl)-5-((((4-(tert-butyl)phenoxy)(((S)-1-(3,3-dimethylcyclobutoxy)-1-oxopropan-2-yl)amino)phosphoryl)oxy)methyl)-2-cyanotetrahydrofuran-3,4-diyl Diacetate], for which the EC50 in the series with SARS-CoV-2 (setting [7]) came to 95.9 nM; in series [3] (setting [8]) it was 30.2 nM; in series [4] (setting [9]), 5.48 nM; in series [5] (setting [10]), 39.9 nM.
For `CC(=O)O[C@H]1[C@@H](OC(C)=O)[C@](C#N)(c2ccc3c(N)ncnn23)O[C@@H]1COP(=O)(N[C@@H](C)C(=O)OC1CC2(CCC2)C1)Oc1cccc2ccccc12` (single isomer, unassigned) [Example 83b], the EC50 with SARS-CoV-2 was 32.8 nM; in series [3] (setting [11]), 20.4 nM; in series [4] (setting [12]), 7.12 nM; in series [5] (setting [10]), 27.9 nM; in series [2] (setting [13]), 7.32 nM.
Regarding `CC(=O)O[C@H]1[C@@H](OC(C)=O)[C@](C#N)(c2ccc3c(N)ncnn23)O[C@@H]1COP(=O)(N[C@@H](C)C(=O)OC1CC2(CCC2)C1)Oc1ccccc1` (single isomer, unassigned) [Example 45b], the EC50 in the series with SARS-CoV-2 was 56.9 nM; in series [3] (setting [11]), 6.87 nM; in series [4] (setting [12]), 10.3 nM; in series [5] (Table 3), 23.9 nM.
`CCC(CC)COC(=O)[C@H](C)NP(=O)(OC[C@H]1O[C@@](C#N)(c2ccc3c(N)ncnn23)[C@H](OC(C)=O)[C@@H]1OC(C)=O)Oc1cccc2ccccc12` (single isomer, unassigned) [Example 78b]: the EC50 was 20 nM with SARS-CoV-2; 33.8 nM in series [3] (setting [8]); 5.67 nM in series [4] (setting [9]); 75.6 nM in series [5] (setting [10]); 21 nM in series [2] (setting [13]).
With `CC(=O)O[C@H]1[C@@H](OC(C)=O)[C@](C#N)(c2ccc3c(N)ncnn23)O[C@@H]1COP(=O)(N[C@@H](C)C(=O)OCC1CC1)Oc1ccc(C(C)(C)C)cc1` (single isomer, unassigned) [Example 102a], the EC50 with SARS-CoV-2 (setting [7]) was 155 nM; in series [3] (setting [11]), 8.68 nM; in series [4] (setting [9]) it was 8.46 nM; in series [5] (setting [10]), 32 nM.
`CC(=O)O[C@H]1[C@@H](OC(C)=O)[C@](C#N)(c2ccc3c(N)ncnn23)O[C@@H]1COP(=O)(N[C@@H](C)C(=O)OC1CC2(CCC2)C1)Oc1ccccc1` (single isomer, unassigned) [Example 45a]: the EC50 with SARS-CoV-2 (setting [7]) was 72.8 nM; in series [3] (setting [11]), 22.7 nM; in series [4] (setting [9]), 7.29 nM; in series [5] (Table 3), 60.4 nM.
With `C[C@H](NP(=O)(OC[C@H]1O[C@@](C#N)(c2ccc3c(N)ncnn23)[C@H](O)[C@@H]1O)Oc1ccccc1)C(=O)OC1CC2(CCC2)C1` (stereo partly drawn) [Example 44, spiro[3.3]heptan-2-yl ((((2R,3S,4R,5R)-5-(4-aminopyrrolo[2,1-f][1,2,4]triazin-7-yl)-5-cyano-3,4-dihydroxytetrahydrofuran-2-yl)methoxy)(phenoxy)phosphoryl)-L-alaninate], the EC50 in the series on SARS-CoV-2 (setting [7]) is 104 nM; in series [3] (setting [8]) it was 18.3 nM; in series [4] (setting [9]), 9.47 nM; in series [5] (setting [10]), 56 nM.
Turning to `CCC(CC)COC(=O)[C@H](C)NP(=O)(OC[C@H]1O[C@@](C#N)(c2ccc3c(N)ncnn23)[C@H](O)[C@@H]1O)Oc1ccc(C(C)(C)C)cc1` (single isomer, unassigned) [Example 13a], the EC50 in the series on SARS-CoV-2 (setting [7]) was found to be 181 nM; in series [3] (human respiratory syncytial virus, HEp-2, 72 h, read-out: EC50 RSVFluc-Hep2 384, HEp-2 cells, RSV-Luc5, MOI=0.5, 3 days, 384 well, One-Glo, Table 1) it was 52.1 nM; in series [4] (setting [9]) it was 5.92 nM; in series [5] (Table 1) it was 91.2 nM.
